# Test results published in article PMC11003488 (Journal of Enzyme Inhibition and Medicinal Chemistry, 2023).
# Experiments:
# LOX IMVI = experiment: NCI-60 SRB growth inhibition, one-dose and five-dose; assay type: cell-based; conditions: Homo sapiens
# HT29 = experiment: as above; assay type: cell-based; conditions: Homo sapiens
# KM12 = experiment: as above; assay type: cell-based; conditions: Homo sapiens
# SK-MEL-28 = experiment: as above; assay type: cell-based; conditions: Homo sapiens
# U251 = experiment: as above; assay type: cell-based; conditions: Homo sapiens
# SK-MEL-5 = experiment: as above; assay type: cell-based; conditions: Homo sapiens
# NCI-H23 = experiment: as above; assay type: cell-based; conditions: Homo sapiens
# OVCAR-5 = experiment: as above; assay type: cell-based; conditions: Homo sapiens
# IGROV1 = experiment: as above; assay type: cell-based; conditions: Homo sapiens
# HOP-62 = experiment: as above; assay type: cell-based; conditions: Homo sapiens
# 786-0 = experiment: as above; assay type: cell-based; conditions: Homo sapiens
# HOP-92 = experiment: as above; assay type: cell-based; conditions: Homo sapiens
# HCT-15 = experiment: as above; assay type: cell-based; conditions: Homo sapiens
# [1] = system: NCI 60-cell line panel (full panel); experiment: NCI-60 SRB growth inhibition, full panel mean / MG-MID; assay type: cell-based, human
# SK-OV-3 = experiment: NCI-60 SRB growth inhibition, one-dose and five-dose; assay type: cell-based; conditions: Homo sapiens
# PC-3 = experiment: as above; assay type: cell-based; conditions: Homo sapiens
# NCI/ADR-RES = experiment: as above; assay type: cell-based; conditions: Homo sapiens
# HCT-116 = experiment: as above; assay type: cell-based; conditions: Homo sapiens
# COLO 205 = experiment: as above; assay type: cell-based; conditions: Homo sapiens
# MALME-3M = experiment: as above; assay type: cell-based; conditions: Homo sapiens
# CCRF-CEM = experiment: as above; assay type: cell-based; conditions: Homo sapiens
# TK-10 = experiment: as above; assay type: cell-based; conditions: Homo sapiens
# NCI-H226 = experiment: as above; assay type: cell-based; conditions: Homo sapiens
# MCF7 = experiment: as above; assay type: cell-based; conditions: Homo sapiens
# EKVX = experiment: as above; assay type: cell-based; conditions: Homo sapiens
# UACC-62 = experiment: as above; assay type: cell-based; conditions: Homo sapiens
# K-562 = experiment: as above; assay type: cell-based; conditions: Homo sapiens
# SNB-75 = experiment: as above; assay type: cell-based; conditions: Homo sapiens
# M14 = experiment: as above; assay type: cell-based; conditions: Homo sapiens
# T-47D = experiment: as above; assay type: cell-based; conditions: Homo sapiens, T47D
# OVCAR-4 = experiment: as above; assay type: cell-based; conditions: Homo sapiens
# NCI-H460 = experiment: as above; assay type: cell-based; conditions: Homo sapiens
# SF-268 = experiment: as above; assay type: cell-based; conditions: Homo sapiens
# HCC-2998 = experiment: as above; assay type: cell-based; conditions: Homo sapiens
# SK-MEL-2 = experiment: as above; assay type: cell-based; conditions: Homo sapiens, SK-MEL-2, read-out: percent growth inhibition
# A498 = experiment: as above; assay type: cell-based; conditions: Homo sapiens
# NCI-H322M = experiment: as above; assay type: cell-based; conditions: Homo sapiens
# NCI-H522 = experiment: as above; assay type: cell-based; conditions: Homo sapiens
# ACHN = experiment: as above; assay type: cell-based; conditions: Homo sapiens
# BT-549 = experiment: as above; assay type: cell-based; conditions: Homo sapiens
# OVCAR-3 = experiment: as above; assay type: cell-based; conditions: Homo sapiens
# HS 578 T = experiment: as above; assay type: cell-based; conditions: Homo sapiens
# [2] = read-out: percent growth inhibition
structure (smiles),measurement,setting,value
"CC(=O)Nc1ccc(/C=C/C(=O)c2cccc(NCc3ccc(NC(C)=O)cc3)c2)cc1 [Compound 5g, (E)-N-(4–(3-(3-((4-acetamidobenzyl)amino)phenyl)-3-oxoprop-1-en-1-yl)phenyl) acetamide]",GI50,LOX IMVI,1900 nM
same,inhibition at 10 µM,LOX IMVI; [2],191%
same,GI50,HT29; HT-29,5.75 µM
same,inhibition at 10 µM,"HT29; HT-29, read-out: percent growth inhibition",164%
same,GI50,KM12; KM12,13.4 µM
same,inhibition at 10 µM,"KM12; KM12, read-out: percent growth inhibition",163%
same,GI50,SK-MEL-28; SK-MEL-28,12.7 µM
same,inhibition at 10 µM,"SK-MEL-28; SK-MEL-28, read-out: percent growth inhibition",98.3%
same,GI50,U251; U-251,3.2 µM
same,inhibition at 10 µM,"U251; U-251, read-out: percent growth inhibition",181%
same,GI50,SK-MEL-5; SK-MEL-5,12 µM
same,inhibition at 10 µM,"SK-MEL-5; SK-MEL-5, read-out: percent growth inhibition",99.6%
same,GI50,NCI-H23; NCI-H23,14.4 µM
same,inhibition at 10 µM,"NCI-H23; NCI-H23, read-out: percent growth inhibition",55.1%
same,GI50,OVCAR-5; OVCAR-5,12.3 µM
same,inhibition at 10 µM,"OVCAR-5; OVCAR-5, read-out: percent growth inhibition",45.2%
same,GI50,IGROV1; IGROV-1,5.59 µM
same,inhibition at 10 µM,"IGROV1; IGROV-1, read-out: percent growth inhibition",56.3%
same,GI50,HOP-62; HOP-62,14.5 µM
same,inhibition at 10 µM,"HOP-62; HOP-62, read-out: percent growth inhibition",35.3%
same,GI50,786-0; 786-0,13.7 µM
same,inhibition at 10 µM,"786-0; 786-0, read-out: percent growth inhibition",144%
same,GI50,HOP-92; HOP-92,11.8 µM
same,inhibition at 10 µM,"HOP-92; HOP-92, read-out: percent growth inhibition",26.9%
same,GI50,HCT-15; HCT-15,3.13 µM
same,inhibition at 10 µM,"HCT-15; HCT-15, read-out: percent growth inhibition",144%
same,GI50,"[1]; Homo sapiens, 60 cell, read-out: Full panel GI50 mean",9.52 µM
same,Full panel Mean GI %,"[1]; mean over NCI-60 panel, single dose 10 µM",87.48%
same,GI50,SK-OV-3; SK-OV-3,16.3 µM
same,inhibition at 10 µM,"SK-OV-3; SK-OV-3, read-out: percent growth inhibition",0.18%
same,GI50,PC-3; PC-3,11.6 µM
same,inhibition at 10 µM,"PC-3; PC-3, read-out: percent growth inhibition",54.8%
same,GI50,NCI/ADR-RES,16.5 µM
same,inhibition at 10 µM,NCI/ADR-RES; [2],88.2%
same,GI50,"HCT-116; HCT-116, HCT-116, five-dose screening",1950 nM
same,inhibition at 10 µM,"HCT-116; HCT-116, read-out: percent growth inhibition",190%
same,GI50,COLO 205; COLO 205,16 µM
same,inhibition at 10 µM,"COLO 205; COLO 205, read-out: percent growth inhibition",30.7%
same,GI50,MALME-3M,7.11 µM
same,inhibition at 10 µM,MALME-3M; [2],57.5%
same,GI50,CCRF-CEM,4.52 µM
same,inhibition at 10 µM,CCRF-CEM; [2],116%
same,GI50,TK-10; TK-10,13.8 µM
same,inhibition at 10 µM,"TK-10; TK-10, read-out: percent growth inhibition",33.2%
same,GI50,NCI-H226; NCI-H226,12.9 µM
same,inhibition at 10 µM,"NCI-H226; NCI-H226, read-out: percent growth inhibition",126%
same,GI50,MCF7; MCF7,2880 nM
same,inhibition at 10 µM,"MCF7; MCF7, read-out: percent growth inhibition",107%
same,GI50,EKVX,13.5 µM
same,inhibition at 10 µM,EKVX; [2],43.7%
same,GI50,UACC-62; UACC-62,8.03 µM
same,inhibition at 10 µM,"UACC-62; UACC-62, read-out: percent growth inhibition",74.2%
same,GI50,K-562; K562,2930 nM
same,inhibition at 10 µM,"K-562; K562, read-out: percent growth inhibition",100%
same,GI50,SNB-75; SNB-75,4.87 µM
same,inhibition at 10 µM,"SNB-75; SNB-75, read-out: percent growth inhibition",17%
same,GI50,M14; M14,12.6 µM
same,inhibition at 10 µM,"M14; M14, read-out: percent growth inhibition",77%
same,GI50,T-47D,7.77 µM
same,inhibition at 10 µM,T-47D; [2],46.4%
same,GI50,OVCAR-4; OVCAR-4,14 µM
same,inhibition at 10 µM,"OVCAR-4; OVCAR-4, read-out: percent growth inhibition",38.7%
same,GI50,NCI-H460; NCI-H460,6.29 µM
same,inhibition at 10 µM,"NCI-H460; NCI-H460, read-out: percent growth inhibition",136%
same,GI50,SF-268; SF-268,18.4 µM
same,inhibition at 10 µM,"SF-268; SF-268, read-out: percent growth inhibition",78.7%
same,GI50,HCC-2998; HCC 2998,14.8 µM
same,inhibition at 10 µM,"HCC-2998; HCC 2998, read-out: percent growth inhibition",137%
same,inhibition at 10 µM,SK-MEL-2,28.3%
same,GI50,A498; A498,14.2 µM
same,inhibition at 10 µM,"A498; A498, read-out: percent growth inhibition",16.6%
same,GI50,NCI-H322M,13.8 µM
same,inhibition at 10 µM,NCI-H322M; [2],28.7%
same,GI50,NCI-H522; NCI-H522,6.54 µM
same,inhibition at 10 µM,"NCI-H522; NCI-H522, read-out: percent growth inhibition",159%
same,GI50,ACHN,5.1 µM
same,inhibition at 10 µM,ACHN; [2],105%
same,GI50,BT-549; BT-549,10.4 µM
same,inhibition at 10 µM,"BT-549; BT-549, read-out: percent growth inhibition",63.7%
same,GI50,OVCAR-3; OVCAR-3,6.09 µM
same,inhibition at 10 µM,"OVCAR-3; OVCAR-3, read-out: percent growth inhibition",118%
same,GI50,HS 578 T,10.6 µM
same,inhibition at 10 µM,HS 578 T; [2],32%
